From patent US4929618A, “Piperdine and piperazine derivatives, and antihistaminic pharmaceutical compositions containing the same” (priority 1988, dated 1990)
Like-named read-outs stand apart in the source and are kept apart here.

Key:
histamine-induced death = experiment: Protective effect on histamine-induced death; assay type: in vivo, guinea pig (Hartley-strain male); conditions: oral 1 mg/kg, 2 h before 1.25 mg/kg i.v. histamine hydrochloride, guinea pig; for responders at 1 mg/kg: Cavia porcellus, read-out: Percent inhibition of histamine-induced death at a dose of 1 mg/kg, P.D. (%)
Method: Hartley-strain male guinea pigs weighing 200 to 250 g were employed. After the test animals were starved for 5 hours, the test substance was orally administered at a dose of 1 mg/kg. 2 hours later after administration of the test substance, 1.25 mg/kg of histamine hydrochloride was intravenously administered to induce histamine shock. The potency of the test substance was judged by the percent inhibition of death induced by histamine.

[1] = cited from earlier work
[2] = tested on: thiopental-induced anesthesia; assay type: in vivo, mouse (ddY-strain male); conditions: 60 mg/10 ml/kg, control 1.00
Method: ddY-strain male mice of 5 weeks of age were employed. Thiopental sodium was dissolved in physiological saline, and the test substance was prepared with a suspending agent of 0.5% Tween 80 (trade name, produced by Atlas Powder Co.; polyoxyethylene (20) sorbitan mono-oleate) and 1% gum tragacanth in the ratio of 1:2.5. The test animals were starved for 4 hours, 60 mg/10 ml/kg of the test substance was intraperitoneally administered (or orally administered), and then 20 minutes later (1 hour later in the case of oral administration), 30 mg/[…] of thiopental sodium was intravenously administered. The time immediately from intravenous administration to the righting reflex was measured, and this was defined as the anesthetic time. The formula for determining the anesthesia elongation is shown below. [formula]

[3] = toxicity test in mice by oral administration; conditions: in vivo, male mouse
Source text: Also, the compounds of the present invention are extremely safe, and can be used continuously for a long term as pharmaceuticals, and were confirmed to have good tolerability in the toxicity test in mice by oral administration.

[4] = i.p., 20 minutes before i.v. thiopental sodium
[5] = p.o., 1 hour before i.v. thiopental sodium

Compound	responders at 1 mg/kg (histamine-induced death)	The ratio of the elongation on the anesthetic time induced by thiopental [2, 4]	The ratio of the elongation on the anesthetic time induced by thiopental [2, 5]	also measured
COc1ccc(CCN2CCC(Nc3nc4ccccc4n3Cc3ccc(F)cc3)CC2)cc1 [Astemizole, reference compound]	100%	–	–	sedative side-effect ([1]; reported for control drugs): little sedative side-effect
CN1CCCC(n2nc(Cc3ccc(Cl)cc3)c3ccccc3c2=O)CC1 (centres unmarked) [Azelastine hydrochloric acid, reference compound]	100%	–	–	–
Clc1ccc(C(OC2CCN(CCSc3nc4ccccc4o3)CC2)c2ccccn2)cc1 (centres unmarked) [Compound A, 2-[2-[4-[(4-Chlorophenyl)-2-pyridylmethoxy]-1-piperidyl]-ethylthio]benzoxazole]	100%	0.89	–	–
Clc1ccc(C(OC2CCN(CCSc3nc4ccccc4o3)CC2)c2ccccn2)cc1.O=C(O)/C=C/C(=O)O (centres unmarked) [Compound B, 2-[2-[4-[(4-Chlorophenyl)-2-pyridylmethoxy]-1-piperidyl]-ethylthio]benzoxazole fumarate]	–	–	1.21	LD50 [3]: 1700 mg/kg
Clc1ccc(C(OC2CCN(CCCSc3nc4ccccc4o3)CC2)c2ccccn2)cc1 (centres unmarked) [Compound C]	100%	0.91	–	–
Clc1ccc(C(OC2CCN(CCNc3nc4ccccc4o3)CC2)c2ccccn2)cc1.O=C(O)/C=C/C(=O)O (centres unmarked) [Compound D, 2-[2-[4-[(4-Chlorophenyl)-2-pyridylmethoxy]-1-piperidyl]-ethylamino]benzoxazole fumaric acid salt]	100%	–	0.88	LD50 [3]: 740 mg/kg
Clc1ccc(C(OC2CCN(CCSc3nc4ccccc4s3)CC2)c2ccccn2)cc1 (centres unmarked) [Compound E, 2-[2-[4-[(4-Chlorophenyl)-2-pyridylmethoxy]-1-piperidyl]-ethylthio]benzothiazole]	60%	1.02	–	–
Clc1ccc(C(OC2CCN(CCCSc3nc4ccccc4s3)CC2)c2ccccn2)cc1 (centres unmarked) [Compound F, 2-[3-[4-[(4-Chlorophenyl)-2-pyridylmethoxy]-1-piperidyl]-propylthio]benzothiazole]	80%	1.73	–	–
CCOc1ccc2nc(SCCCN3CCC(OC(c4ccc(Cl)cc4)c4ccccn4)CC3)sc2c1.O=C(O)/C=C/C(=O)O (centres unmarked) [Compound G, 2-[3-[4-[(4-chlorophenyl)-2-pyridylmethoxy]-1-piperidyl]propylthio]-6-ethoxybenzothiazole fumarate]	100%	–	0.92	–
Clc1ccc(C(OC2CCN(CCNc3nc4ccccc4s3)CC2)c2ccccn2)cc1 (centres unmarked) [Compound H, 2-[2-[4-[(4-Chlorophenyl)-2-pyridylmethoxy]-1-piperidyl]-ethylamino]benzothiazole]	100%	1.05	–	–
c1ccc(C(c2ccccc2)N2CCN(CCCSc3nc4ccccc4s3)CC2)cc1 [Compound I, 2-[3-[4-(diphenylmethyl)-1-piperadinyl]propylthio]benzothiazole dimaleate]	80%	1.25	–	–
CCOC(=O)CCCN1CCC(OC(c2ccc(Cl)cc2)c2ccccn2)CC1 (centres unmarked) [Compound J, Ethyl 4-[4-[(4-chlorophenyl)-2-pyridylmethoxy]-1-piperidyl]butanoate]	100%	1.04	–	–
CCOC(=O)CCCN1CCC(OC(c2ccc(Cl)cc2)c2ccccn2)CC1.Cc1ccc(S(=O)(=O)O)cc1 (centres unmarked) [Compound K, Ethyl 4-[4-[(4-chlorophenyl)-2-pyridylmethoxy]-1-piperidyl]butanoate p-toluenesulfonate]	–	–	1.19	LD50 [3]: 2200 mg/kg
O=C(O)CCCN1CCC(OC(c2ccc(Cl)cc2)c2ccccn2)CC1 (centres unmarked) [Compound L, 4-[4-[(4-Chlorophenyl)-2-pyridylmethoxy]-1-piperidyl]-butanoic acid]	100%	–	–	–
NC(=O)CCCN1CCC(OC(c2ccc(Cl)cc2)c2ccccn2)CC1.O=C(O)/C=C\C(=O)O (centres unmarked) [Compound M, 4-[4-[(4-Chlorophenyl)-2-pyridylmethoxy]-1-piperidyl]-butanamide maleate]	100%	–	0.75	–
CCOC(=O)CCCN1CCC(OC(c2ccccc2)c2ccccc2)CC1.O=C(O)/C=C/C(=O)O [Compound N, Ethyl 4-(4-diphenylmethoxy-1-piperidyl)butanoate fumaric acid salt]	80%	–	0.90	–
CCOC(=O)C=CCN1CCC(OC(c2ccc(Cl)cc2)c2ccccn2)CC1 (centres unmarked) [Compound O, Ethyl 4-[4-[(4-chlorophenyl)-2-pyridylmethoxy]-1-piperidyl]-2-butenoate]	100%	–	1.14	–
CC(=O)CCCN1CCC(OC(c2ccc(Cl)cc2)c2ccccn2)CC1.O=C(O)/C=C/C(=O)O (centres unmarked) [Compound P, 5-[4-[(4-Chlorophenyl)-2-pyridylmethoxy]-1-piperidyl]-2-pentanone fumaric acid salt]	100%	–	0.86	–
O=C(CCCN1CCC(OC(c2ccc(Cl)cc2)c2ccccn2)CC1)c1ccccc1 (centres unmarked) [Compound Q, 4-[(4-Chlorophenyl)-2-pyridylmethoxy]-1-(3-benzoylpropyl)piperidine]	100%	–	1.25	–
c1ccc2c(c1)Sc1ccccc1N2CC1CN2CCC1CC2 (centres unmarked) [Meqiutazine, reference compound]	80%	–	–	–
O=c1[nH]c2ccccc2n1CCCN1CCN(C(c2ccccc2)c2ccccc2)CC1 [Oxatomide, reference compound]	100%	–	4.56	–
CC(C)(C)c1ccc(C(O)CCCN2CCC(C(O)(c3ccccc3)c3ccccc3)CC2)cc1 (centres unmarked) [Terfenadine, reference compound]	50%	–	–	sedative side-effect ([1]; in vivo): little sedative side-effect
Chlorophenylamine maleate [reference compound]	–	1.81	–	Percent inhibition of histamine-induced death at a dose of 1 mg/kg, P.D. (%) (histamine-induced death): 100%
